US20250333397A1 (REMIX THERAPEUTICS INC., priority 2021, published 2025)
Where two headings read alike, the source gives them in different places.

Tests used:
Type in all cases: cell-based, human
SMN2 mRNA = assay: RT-qPCR splicing assay panel, SMN2 canonical junction (CJ) mRNA; conditions: Homo sapiens
Procedure, shortened: (§1)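 Junction-specific RT-qPCR read the canonical exon-exon junction and the compound-induced alternative-exon junction, normalized to GAPDH, GUSB or PPIA and then to DMSO (2^(-ΔΔCt)). Input was lysate from A673 or K562 cells exposed for 24 h to compound up to 10 uM.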

Target C mRNA = assay: RT-qPCR splicing assay panel, Target C canonical junction (CJ) mRNA; conditions: Homo sapiens
Procedure, shortened: as §1

HTT mRNA = assay: RT-qPCR splicing assay, HTT canonical (CJ) and alternative (AJ) junction mRNA; conditions: Homo sapiens; for AC50: read-out: HTT AJ (AC50, increase in AJ mRNA)
Procedure, shortened: as §1

MYB mRNA = assay: RT-qPCR splicing assay, MYB canonical (CJ) and alternative (AJ) junction mRNA; conditions: Homo sapiens; for AC50: read-out: MYB AJ (AC50, increase in AJ mRNA)
Procedure, shortened: as §1

[1] = canonical junction (CJ) mRNA, RT-qPCR panel, Table 4A, read-out: SMN2, decrease in CJ mRNA levels, IC50
[2] = canonical junction (CJ) mRNA, RT-qPCR panel, Table 4A, read-out: Target C, decrease in CJ mRNA levels, IC50
[3] = 24 h, Table 3A, A673 or K562 cells, 24 h treatment
[4] = 24 h, Table 3A, A673 or K562 cells, 24 h treatment, read-out: HTT CJ (IC50, decrease in CJ mRNA)
[5] = canonical junction (CJ) mRNA, RT-qPCR panel, Table 4A, read-out: HTT, decrease in CJ mRNA levels, IC50
[6] = 24 h, Table 3A, A673 or K562 cells, 24 h treatment, read-out: MYB CJ (IC50, decrease in CJ mRNA)
[7] = canonical junction (CJ) mRNA, RT-qPCR panel, Table 4A, read-out: MYB, decrease in CJ mRNA levels, IC50
[8] = Table 4B, gene panel, read-out: SMN2 (IC50, decrease in CJ mRNA levels)
[9] = Table 4B, gene panel, read-out: Target C (IC50, decrease in CJ mRNA levels)
[10] = 24 h, Table 3B, A673 or K562 cells, 24 h treatment
[11] = 24 h, Table 3B, A673 or K562 cells, 24 h treatment, read-out: HTT CJ (IC50, decrease in CJ mRNA)
[12] = Table 4B, gene panel, read-out: HTT (IC50, decrease in CJ mRNA levels)
[13] = 24 h, Table 3B, A673 or K562 cells, 24 h treatment, read-out: MYB CJ (IC50, decrease in CJ mRNA)
[14] = Table 4B, gene panel, read-out: MYB (IC50, decrease in CJ mRNA levels)

Compound	IC50 (SMN2 mRNA; [1]) [µM]	IC50 (Target C mRNA; [2]) [µM]	AC50 (HTT mRNA; [3]) [µM]	IC50 (HTT mRNA; [4]) [µM]	IC50 (HTT mRNA; [5]) [µM]	AC50 (MYB mRNA; [3]) [µM]	IC50 (MYB mRNA; [6]) [µM]	IC50 (MYB mRNA; [7]) [µM]	IC50 (SMN2 mRNA; [8]) [µM]	IC50 (Target C mRNA; [9]) [µM]	AC50 (HTT mRNA; [10]) [µM]	IC50 (HTT mRNA; [11]) [µM]	IC50 (HTT mRNA; [12]) [µM]	AC50 (MYB mRNA; [10]) [µM]	IC50 (MYB mRNA; [13]) [µM]	IC50 (MYB mRNA; [14]) [µM]
CNc1cc(-c2ccc(-c3ccc(N4CCC(NCC5CC5)C4)nn3)c(O)c2)ncn1 (stereo not shown) [Compound 434]	< 0.1	0.1 to 1	< 0.1	< 0.1	< 0.1	0.1 to 1	0.1 to 1	0.1 to 1	–	–	–	–	–	–	–	–
COc1cc(-c2ccc(-c3ccc(N4CC[C@@H](NC5CC5)C4)nn3)c(O)c2)cnn1 [Compound 216, 2-{6-[(3R)-3-(cyclopropylamino)pyrrolidin-1-yl]pyridazin-3-yl}-5-(6-methoxypyridazin-4-yl)phenol]	< 0.1	0.1 to 1	0.1 to 1	< 0.1	< 0.1	0.1 to 1	0.1 to 1	0.1 to 1	–	–	–	–	–	–	–	–
COc1cc(-c2ccc(-c3ccc(N4CC[C@H](NC5(C)CCC5)C4)nn3)c(O)c2)ncn1 [Compound 384, 5-(6-methoxypyrimidin-4-yl)-2-{6-[(3S)-3-[(1-methylcyclobutyl)amino]pyrrolidin-1-yl]pyridazin-3-yl}phenol]	< 0.1	0.1 to 1	< 0.1	< 0.1	< 0.1	0.1 to 1	0.1 to 1	0.1 to 1	–	–	–	–	–	–	–	–
COc1cc(-c2ccc(-c3ccc(N4CC[C@H](NCC5CC5)C4)nn3)c(O)c2)ncn1 [Compound 381, 2-{6-[(3S)-3-[(cyclopropylmethyl)amino]pyrrolidin-1-yl]pyridazin-3-yl}-5-(6-methoxypyrimidin-4-yl)phenol]	< 0.1	0.1 to 1	0.1 to 1	< 0.1	< 0.1	0.1 to 1	0.1 to 1	0.1 to 1	–	–	–	–	–	–	–	–
COc1cc(-c2ccc(-c3ccc(N4CC[C@@H](NC5CCC5)C4)nn3)c(O)c2)cnn1 [Compound 264]	< 0.1	0.1 to 1	0.1 to 1	< 0.1	< 0.1	0.1 to 1	0.1 to 1	0.1 to 1	–	–	–	–	–	–	–	–
Oc1cc(-c2cc(OC(F)F)ncn2)ccc1-c1ccc(N2CCC(NCC3CC3)C2)nn1 (stereo not shown) [Compound 370]	0.1 to 1	> 10	> 10	> 10	> 10	> 10	> 10	> 10	–	–	–	–	–	–	–	–
Cc1ncc(-c2cc(O)c(-c3ccc(N4CC[C@H](N(C)C(C)(C)C)C4)nn3)cc2F)s1 [Compound 322, 2-{6-[(3S)-3-[tert-butyl(methyl)amino]pyrrolidin-1-yl]pyridazin-3-yl}-4-fluoro-5-(2-methyl-1,3-thiazol-5-yl) phenol]	< 0.1	< 0.1	< 0.1	< 0.1	< 0.1	< 0.1	< 0.1	< 0.1	–	–	–	–	–	–	–	–
Oc1cc(-c2cnc(C3CC3)s2)c(F)cc1-c1ccc(N2CCC(NC3CCC3)C2)nn1 (stereo not shown) [Compound 444]	1 to 10	> 10	> 10	> 10	> 10	> 10	> 10	> 10	–	–	–	–	–	–	–	–
Cc1nc2cc(O)c(-c3cnc(N4CC[C@@H](N(C)C(C)(C)C)C4)nn3)cc2o1 [Compound 856]	–	–	–	–	–	–	–	–	0.1 to 1	1 to 10	1 to 10	0.1 to 1	0.1 to 1	1 to 10	1 to 10	1 to 10
COc1cc(-c2ccc(-c3cc(C#N)c(N4CC[C@H](NC5CCC5)C4)nn3)c(O)c2)cnn1 [Compound 343, 3-[(3S)-3-(cyclobutylamino)pyrrolidin-1-yl]-6-[2-hydroxy-4-(6-methoxypyridazin-4-yl)phenyl]pyridazine-4-carbonitrile]	0.1 to 1	1 to 10	1 to 10	0.1 to 1	0.1 to 1	> 10	> 10	> 10	–	–	–	–	–	–	–	–
Cc1ncc(-c2cc(O)c(-c3ccc(N4CC[C@H](CNC5CCC5)C4)nn3)cc2F)s1 [Compound 454]	< 0.1	0.1 to 1	–	–	< 0.1	–	–	1 to 10	–	–	–	–	–	–	–	–
Cc1nc2cc(O)c(-c3cnc(N4CC[C@H](N(C)C(C)(C)C)C4)nn3)cc2o1 [Compound 857]	–	–	–	–	–	–	–	–	< 0.1	0.1 to 1	0.1 to 1	< 0.1	< 0.1	0.1 to 1	0.1 to 1	0.1 to 1
Cn1ncc(-c2ccc(-c3ccc(N4CC[C@H](NC(C)(C)C)C4)nn3)c(O)c2)cc1=O [Compound 298, 5-(4-{6-[(3S)-3-(tert-butylamino)pyrrolidin-1-yl]pyridazin-3-yl}-3-hydroxyphenyl)-2-methylpyridazin-3-one]	< 0.1	0.1 to 1	0.1 to 1	< 0.1	< 0.1	0.1 to 1	0.1 to 1	0.1 to 1	–	–	–	–	–	–	–	–
Cc1nc2c(F)c(O)c(-c3ccc(N4CC[C@H](NC(C)(C)C)C4)nn3)cc2o1 [Compound 843]	–	–	–	–	–	–	–	–	> 10	> 10	> 10	> 10	> 10	> 10	> 10	> 10
CNc1cc(-c2ccc(-c3ccc(N4CC[C@H](NC(C)(C)C)C4)nn3)c(O)c2)ncn1 [Compound 436, 2-{6-[(3S)-3-(tert-butylamino)pyrrolidin-1-yl]pyridazin-3-yl}-5-[6-(methylamino)pyrimidin-4-yl]phenol]	< 0.1	< 0.1	< 0.1	< 0.1	< 0.1	0.1 to 1	0.1 to 1	0.1 to 1	–	–	–	–	–	–	–	–
CCC(C)(C)NC1CCN(c2ccc(-c3cc4oc(C)nc4cc3O)nn2)C1 (stereo not shown) [Compound 836]	–	–	–	–	–	–	–	–	0.1 to 1	1 to 10	1 to 10	0.1 to 1	0.1 to 1	1 to 10	1 to 10	1 to 10
